The structures appear in SMILES notation.

One test has as its target T1, Human αvβ3 (Homo sapiens, UniProt P05106+P06756).
T1 construct: purchased Chemicon International Inc., Temecula, Calif
Description: In vitro solid phase purified αvβ3 binding assay (vitronectin/αvβ3). The settings on record: isolated human αvβ3, 5 nM vitronectin; read-out: αvβ3 Binding IC50. As for the experimental part:
(§1) In vitro Solid Phase Purified αvβ3 Binding Assay The vitronectin/αvβ3 binding assay methods were derived from Mehta et al. (Biochem J. 1998, 330, 861). Human αvβ3 (Chemicon International Inc., Temecula, Calif.), at a concentration of 1 μg/ml dissolved in Tris buffer (20 mM Tris, 1 mM CaCl2, 1 mM MgCl2, 10 μM MnCl2, 150 mM NaCl), was immobilized on Immulon 96 well plates (Dynex Technologies, Chantilly, Va.) overnight at 4° C. Plates were washed and treated with blocking buffer (3% BSA in Tris buffer) for 2 h at 37 C. Plates were then rinsed 2 times in Tris buffer containing 0.3% BSA and 0.2% Tween20 (polyoxyethylenesorbitan monolaurate). Five minutes prior to the addition of 5 nM vitronectin (Sigma, St. Louis, Mo.), compounds of the invention were added to wells in duplicate. Each plate included c-RGDfV as an internal control. Following a 3 hour incubation at 37° C., plates were washed 5 times in assay buffer. An anti-human vitronectin IgG rabbit polyclonal antibody (Calbiochem, San Diego, Calif.) was added (1:2000) and plates were incubated for 1 hour at room temperature. VectaStain ABC peroxidase kit reagents (Vector Laboratories, Burlingame, Calif.) employing a biotin labeled anti-rabbit IgG, were utilized for detection of bound antibody. Plates were read at 490 nm on a Molecular Devices (Sunnyvale, Calif.) microplate reader. […] The plate was covered and incubated overnight at 4° C. The GPIIb/IIIa solution was discarded and 150 μl of 5% BSA was added and incubated at RT for 1–3 h. The plate was washed extensively with modified Tyrodes buffer. Biotinylated fibrinogen (25 μl/well) at 2× final concentration was added to the wells that contain the test compounds (25 μl/well). The plate was covered and incubated at RT for 2–4 h. Twenty minutes prior to incubation completion, one drop of Reagent A (VectaStain ABC Horse Radish Peroxidase kit, Vector Laboratories, Inc.) and one drop Reagent B were added with mixing to 5 mL modified Tyrodes buffer mix and let stand. The ligand solution was discarded and the plate washed (5×200 μl/well) with modified Tyrodes buffer. Vecta Stain HRP-Biotin-Avidin reagent (50 μl/well, as prepared above) was added and incubated at RT for 15 min. The Vecta Stain solution was discarded and the wells washed (5×200 μl/well) with modified Tyrodes buffer. Developing buffer (10 mL of 50 mM citrate/phosphate buffer @ pH 5.3, 6 mg o-phenylenediamine, 6 μl 30% H2O2; 50 μl/well) was added and incubated at rt for 3–5 min, and then 2 N H2SO4 (50 μl/well) was added. The absorbance was read at 490 nm.

Another test deals with GPIIb/IIIa (Homo sapiens, UniProt P05106+P08514). The experiment in a line: In vitro solid phase purified glycoprotein IIb/IIIa binding assay (biotinylated fibrinogen). The settings on record: RGD-affinity purified GPIIb/IIIa, biotinylated fibrinogen; read-out: GPIIb/IIIa Binding IC50. As for the experimental part: as §1
GPIIb/IIIa, sequence (P08514 32-887 limits assumed): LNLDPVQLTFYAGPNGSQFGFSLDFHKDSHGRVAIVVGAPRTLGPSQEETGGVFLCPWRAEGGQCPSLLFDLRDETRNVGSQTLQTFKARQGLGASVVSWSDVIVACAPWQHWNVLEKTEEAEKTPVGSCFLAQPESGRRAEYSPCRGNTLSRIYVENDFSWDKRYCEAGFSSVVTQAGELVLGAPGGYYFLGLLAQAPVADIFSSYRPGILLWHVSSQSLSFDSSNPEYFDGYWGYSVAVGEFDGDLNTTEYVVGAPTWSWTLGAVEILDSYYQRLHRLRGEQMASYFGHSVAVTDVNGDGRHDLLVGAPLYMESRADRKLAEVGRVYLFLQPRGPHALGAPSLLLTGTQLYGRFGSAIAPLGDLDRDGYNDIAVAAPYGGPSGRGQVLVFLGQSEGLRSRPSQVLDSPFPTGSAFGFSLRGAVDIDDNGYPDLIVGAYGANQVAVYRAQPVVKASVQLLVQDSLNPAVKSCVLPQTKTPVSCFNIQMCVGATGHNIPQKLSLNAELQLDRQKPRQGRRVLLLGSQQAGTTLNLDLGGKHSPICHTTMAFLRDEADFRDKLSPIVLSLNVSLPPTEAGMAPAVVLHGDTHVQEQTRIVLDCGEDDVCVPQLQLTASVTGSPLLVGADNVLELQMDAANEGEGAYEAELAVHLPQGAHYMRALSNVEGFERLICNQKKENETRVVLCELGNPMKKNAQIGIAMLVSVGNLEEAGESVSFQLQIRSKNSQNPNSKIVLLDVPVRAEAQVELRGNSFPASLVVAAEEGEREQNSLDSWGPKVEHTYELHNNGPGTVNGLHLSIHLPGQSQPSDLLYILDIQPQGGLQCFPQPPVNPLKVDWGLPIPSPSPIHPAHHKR
GPIIb/IIIa, sequence (P08514 891-1039 partner limits assumed): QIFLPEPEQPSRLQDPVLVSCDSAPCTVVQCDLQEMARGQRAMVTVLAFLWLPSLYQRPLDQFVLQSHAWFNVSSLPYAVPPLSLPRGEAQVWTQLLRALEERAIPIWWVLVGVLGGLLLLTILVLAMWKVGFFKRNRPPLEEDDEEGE
GPIIb/IIIa, sequence (P05106 27-788): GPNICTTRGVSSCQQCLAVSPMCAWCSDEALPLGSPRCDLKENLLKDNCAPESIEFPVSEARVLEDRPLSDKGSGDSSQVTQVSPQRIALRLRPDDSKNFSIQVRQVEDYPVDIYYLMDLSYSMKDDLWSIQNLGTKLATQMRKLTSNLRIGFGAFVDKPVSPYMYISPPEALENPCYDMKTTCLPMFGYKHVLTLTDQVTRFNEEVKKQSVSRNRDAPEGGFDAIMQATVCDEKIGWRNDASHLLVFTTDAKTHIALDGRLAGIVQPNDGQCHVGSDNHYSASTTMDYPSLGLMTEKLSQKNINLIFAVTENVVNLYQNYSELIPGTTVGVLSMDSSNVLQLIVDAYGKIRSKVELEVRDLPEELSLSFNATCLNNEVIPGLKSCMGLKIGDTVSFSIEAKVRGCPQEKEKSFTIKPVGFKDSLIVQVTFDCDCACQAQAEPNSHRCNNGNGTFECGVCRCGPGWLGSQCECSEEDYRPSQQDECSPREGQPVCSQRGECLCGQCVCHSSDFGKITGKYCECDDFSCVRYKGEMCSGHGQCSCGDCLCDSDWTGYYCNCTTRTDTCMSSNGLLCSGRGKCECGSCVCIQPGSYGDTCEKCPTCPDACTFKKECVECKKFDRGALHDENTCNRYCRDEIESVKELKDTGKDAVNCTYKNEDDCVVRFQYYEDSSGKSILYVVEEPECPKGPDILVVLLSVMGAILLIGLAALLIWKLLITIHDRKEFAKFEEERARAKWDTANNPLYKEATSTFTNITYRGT

T1 sequence (P06756 31-889 limits assumed): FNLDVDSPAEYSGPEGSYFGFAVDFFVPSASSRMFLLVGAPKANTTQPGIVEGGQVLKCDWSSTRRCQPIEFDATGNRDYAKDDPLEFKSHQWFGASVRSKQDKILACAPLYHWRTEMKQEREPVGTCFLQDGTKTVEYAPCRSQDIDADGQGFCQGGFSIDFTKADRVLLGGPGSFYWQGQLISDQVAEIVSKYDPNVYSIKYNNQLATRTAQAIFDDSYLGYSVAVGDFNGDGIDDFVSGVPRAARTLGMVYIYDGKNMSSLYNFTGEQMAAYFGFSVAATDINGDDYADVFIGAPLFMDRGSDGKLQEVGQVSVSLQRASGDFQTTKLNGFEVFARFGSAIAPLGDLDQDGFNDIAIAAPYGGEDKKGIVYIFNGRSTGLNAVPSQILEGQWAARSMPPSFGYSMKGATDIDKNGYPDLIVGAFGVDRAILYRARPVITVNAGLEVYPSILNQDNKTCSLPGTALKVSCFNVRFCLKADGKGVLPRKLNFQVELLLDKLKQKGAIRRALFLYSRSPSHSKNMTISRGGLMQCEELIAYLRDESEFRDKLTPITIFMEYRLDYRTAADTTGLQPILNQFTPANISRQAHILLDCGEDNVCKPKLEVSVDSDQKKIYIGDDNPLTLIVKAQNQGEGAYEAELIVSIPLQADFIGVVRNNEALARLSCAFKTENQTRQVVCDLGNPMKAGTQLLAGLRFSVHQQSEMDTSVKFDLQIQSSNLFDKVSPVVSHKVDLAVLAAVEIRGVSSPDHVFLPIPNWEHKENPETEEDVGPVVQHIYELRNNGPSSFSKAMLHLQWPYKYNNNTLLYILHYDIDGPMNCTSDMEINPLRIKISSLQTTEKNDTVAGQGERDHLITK
T1 sequence (P06756 891-1048 partner limits assumed): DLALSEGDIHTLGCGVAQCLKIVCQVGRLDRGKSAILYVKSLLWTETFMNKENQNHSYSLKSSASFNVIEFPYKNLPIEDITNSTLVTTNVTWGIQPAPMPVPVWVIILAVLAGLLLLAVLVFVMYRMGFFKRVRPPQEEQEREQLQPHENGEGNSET
T1 sequence (P05106 27-788): as the sequence (P05106 27-788) above

On to `Cc1c(C)c(C)c(S(=O)(=O)N[C@@H](Cc2nc3ccc(/C=C/CNC4=NCCC4)cc3c(=O)[nH]2)C(=O)O)c(C)c1C` [Compound 15, 6-[(1E)-3-[(3,4-dihydro-2H-pyrrol-5-yl)amino]-1-propenyl]-(αS)-3,4-dihydro-4-oxo-α-[[(2,3,4,5,6-pentamethylphenyl)sulfonyl]amino]-2-quinazolinepropanoic Acid], for which the IC50 on Human αvβ3 worked out at 18 nM; at GPIIb/IIIa it was 77 nM.

`COc1cccc([C@@H](CC(=O)O)c2nc3ccc(/C=C/CNc4ccccn4)cc3c(=O)[nH]2)c1` [Compound 17, (βR)-3,4-dihydro-β-(3-methoxyphenyl)-4-oxo-6-[(1E)-3-(2-pyridinylamino)-1-propenyl]-2-quinazolinepropanoic Acid]: the figures for the IC50 at Human αvβ3 and on GPIIb/IIIa were greater than 50000 nM and 18000 nM, respectively.

Regarding `COc1cccc([C@@H](CC(=O)O)c2nc3ccc(/C=C/CNc4ccccn4)cc3c(=O)n2C)c1` [Compound 18, (βR)-3,4-dihydro-β-(3-methoxyphenyl)-3-methyl-4-oxo-6-[(1E)-3-(2-pyridinylamino)-1-propenyl]-2-quinazolinepropanoic Acid], the IC50 on Human αvβ3 is 18000 nM; on GPIIb/IIIa, greater than 50000 nM.

Take `NC/C=C/c1ccc2nc(C[C@H](NC(=O)OCc3ccccc3)C(=O)O)[nH]c(=O)c2c1` [Compound 19, 6-[(1E)-3-amino-1-propenyl]-(αS)-3,4-dihydro-4-oxo-α-[[(phenylmethoxy)carbonyl]amino]-2-quinazolinepropanoic acid]: the IC50 at Human αvβ3 was greater than 5000 nM; at GPIIb/IIIa, 450 nM.

Regarding `O=C(N[C@@H](Cc1nc2ccc(C#CCNC3=NCCN3)cc2c(=O)[nH]1)C(=O)O)OCc1ccccc1` [Compound 20, 6-[3-[(4,5-dihydro-1H-imidazol-2-yl)amino]-1-propynyl]-(αS)-3,4-dihydro-4-oxo-α-[[(phenylmethoxy)carbonyl]amino]-2-quinazolinepropanoic acid], the IC50 at Human αvβ3 was greater than 5000 nM; on GPIIb/IIIa it was 660 nM.

Take `O=C(O)[C@H](Cc1nc2ccc(/C=C/CNC3=NCCN3)cc2c(=O)[nH]1)NS(=O)(=O)c1c(Cl)cc(Cl)cc1Cl` [Compound 21, 6-[(1E)-3-[(4,5-dihydro-1H-imidazol-2-yl)amino]-1-propenyl]-(αS)-3,4-dihydro-4-oxo-α-[[(2,4,6-trichlorophenyl)sulfonyl]amino]-2-quinazolinepropanoic acid]: the IC50 at Human αvβ3 is greater than 50 nM; on GPIIb/IIIa, 1600 nM.

Turning to `CN(C)c1cccc2c(S(=O)(=O)N[C@@H](Cc3nc4ccc(/C=C/CNC5=NCCN5)cc4c(=O)[nH]3)C(=O)O)cccc12` [Compound 22, 6-[(1E)-3-[(4,5-dihydro-1H-imidazol-2-yl)amino]-1-propenyl]-α-[[[5-(dimethylamino)-1-naphthalenyl]sulfonyl]amino]-(αS)-3,4-dihydro-4-oxo-2-quinazolinepropanoic acid], the IC50 on Human αvβ3 was greater than 500 nM; on GPIIb/IIIa, 1200 nM.

`O=C(O)[C@H](Cc1nc2ccc(/C=C/CNc3ccccn3)cc2c(=O)[nH]1)NS(=O)(=O)c1ccc2ccccc2c1` [Compound 24, (αS)-3,4-dihydro-α-[(2-naphthalenylsulfonyl)amino]-4-oxo-6-[(1E)-3-(2-pyridinylamino)-1-propenyl]-2-quinazolinepropanoic acid]: the IC50 on Human αvβ3 amounted to 23 nM; on GPIIb/IIIa it was 1400 nM.

Take `O=C(O)[C@H](Cc1nc2ccc(/C=C/CNc3ccccn3)cc2c(=O)[nH]1)NS(=O)(=O)c1ccc(C(F)(F)F)cc1` [Compound 25, (αS)-3,4-dihydro-4-oxo-6-[(1E)-3-(2-pyridinylamino)-1-propenyl]-α-[[[4-(trifluoromethyl)phenyl]sulfonyl]amino]-2-quinazolinepropanoic acid]: the IC50 at Human αvβ3 was 72 nM; at GPIIb/IIIa, 9600 nM.

`COc1ccc(S(=O)(=O)N[C@@H](Cc2nc3ccc(/C=C/CNc4ccccn4)cc3c(=O)[nH]2)C(=O)O)cc1` [Compound 26, (αS)-3,4-dihydro-α-[[(4-methoxyphenyl)sulfonyl]amino]-4-oxo-6-[(1E)-3-(2-pyridinylamino)-1-propenyl]-2-quinazolinepropanoic acid]: the IC50 at Human αvβ3 came to 15 nM; on GPIIb/IIIa it was 1300 nM.
